Measurements as given in ChEMBL document CHEMBL1137662, “Effect of oral treatment with hexadecyloxypropyl-[(S)-9-(3-hydroxy-2- phosphonylmethoxypropyl)adenine] [(S)-HPMPA] or octadecyloxyethyl-(S)-HPMPA on cowpox or vaccinia virus infections in mice” (Antimicrob Agents Chemother, 2007).
The source made the active and inactive calls. No cut-off for these calls is given here.

Legend:
Cowpox virus [1] = assay: Antiviral activity against Cowpox virus Brighton in HFF cells assessed as reduction of viral replication after 3 days; assay type: functional, organism-based, Cowpox virus (Brighton Red); details: 72 h
Vaccinia virus [2] = assay: Antiviral activity against Vaccinia virus WR infected BALB/c mouse assessed as mortality at 10 mg/kg, ip treated for 5 days after 48 hrs of viral inoculation; assay type: functional, Orthopoxvirus vaccinia; details: route intraperitoneal
[3] = Cytotoxicity against HFF cells after 7 days; assay type: cell-based; details: human
Vaccinia virus [4] = assay: Antiviral activity against Vaccinia virus WR infected BALB/c mouse assessed as mortality at 15 mg/kg, ip treated for 5 days after 72 hrs of viral inoculation; assay type: functional, Orthopoxvirus vaccinia; details: route intraperitoneal
Vaccinia virus [5] = assay: Antiviral activity against Vaccinia virus WR infected BALB/c mouse assessed as mortality at 15 mg/kg, ip treated for 5 days after 24 hrs of viral inoculation; assay type: functional, Orthopoxvirus vaccinia; details: route intraperitoneal
Vaccinia virus [6] = assay: Antiviral activity against Vaccinia virus WR infected BALB/c mouse assessed as reduction of viral titer in lung at 30 mg/kg, po treated for 5 days after 24 hrs of viral inoculation; assay type: functional, organism-based; set-up: dose 30 mg/kg; details: Orthopoxvirus vaccinia
Cowpox virus [7] = assay: Antiviral activity against Cowpox virus Brighton infected BALB/c mouse assessed as mortality at 10 mg/kg, ip treated for 5 days after 48 hrs of viral inoculation; assay type: functional, Cowpox virus (Brighton Red); details: route intraperitoneal
Vaccinia virus [8] = assay: Antiviral activity against Vaccinia virus WR infected BALB/c mouse assessed as mortality at 15 mg/kg, ip treated for 5 days after 48 hrs of viral inoculation; assay type: functional, Orthopoxvirus vaccinia; details: route intraperitoneal
[9] = Selectivity index, ratio of CC50 for HFF cells to EC50 for Vaccinia virus Copenhagen; assay type: toxicity, cell-based; details: human, read-out: Ratio CC50/EC50
Cowpox virus [10] = assay: Antiviral activity against Cowpox virus Brighton infected BALB/c mouse assessed as mean death day at 10 mg/kg, po treated for 5 days after 48 hrs of viral inoculation; assay type: functional, Cowpox virus (Brighton Red)
Cowpox virus [11] = assay: Antiviral activity against Cowpox virus Brighton infected BALB/c mouse assessed as mortality at 10 mg/kg, ip treated for 5 days after 24 hrs of viral inoculation; assay type: functional, Cowpox virus (Brighton Red); details: route intraperitoneal
Vaccinia virus [12] = assay: Antiviral activity against Vaccinia virus WR infected BALB/c mouse assessed as mortality at 10 mg/kg, ip treated for 5 days after 24 hrs of viral inoculation; assay type: functional, Orthopoxvirus vaccinia; details: route intraperitoneal
Vaccinia virus [13] = assay: Antiviral activity against Vaccinia virus WR infected BALB/c mouse assessed as mortality at 10 mg/kg, ip treated for 5 days after 72 hrs of viral inoculation; assay type: functional, Orthopoxvirus vaccinia; details: route intraperitoneal
Cowpox virus [14] = assay: Antiviral activity against Cowpox virus Brighton infected BALB/c mouse assessed as mortality at 10 mg/kg, ip treated for 5 days after 72 hrs of viral inoculation; assay type: functional, Cowpox virus (Brighton Red); details: route intraperitoneal
[15] = Selectivity index, ratio of CC50 for HFF cells to EC50 for Cowpox virus Brighton; assay type: toxicity, cell-based; details: human, read-out: Ratio CC50/EC50
[16] = Selectivity index, ratio of CC50 for HFF cells to EC50 for Vaccinia virus WR; assay type: toxicity, cell-based; details: human, read-out: Ratio CC50/EC50
Vaccinia virus [17] = assay: Antiviral activity against Vaccinia virus Copenhagen in HFF cells assessed as reduction of viral replication after 3 days; assay type: functional, organism-based; details: Orthopoxvirus vaccinia, 72 h
Vaccinia virus [18] = assay: Antiviral activity against Vaccinia virus WR in HFF cells assessed as reduction of viral replication after 3 days; assay type: functional, organism-based; details: Orthopoxvirus vaccinia, 72 h
[19] = Oral bioavailability in Swiss Webster mouse at 10 mg/kg; assay type: ADME, organism-based; details: in vivo

Row | SMILES | EC50 (Cowpox virus [1]) | Activity (Vaccinia virus [2]) | CC50 at 168 h [3] | Activity (Vaccinia virus [4]) | Activity (Vaccinia virus [5]) | Activity (Vaccinia virus [6]) | Activity (Cowpox virus [7]) | Activity (Vaccinia virus [8]) | selectivity ratio [9] | Activity (Cowpox virus [10]) | Activity (Cowpox virus [11]) | Activity (Vaccinia virus [12]) | Activity (Vaccinia virus [13]) | Activity (Cowpox virus [14]) | selectivity ratio [15] | selectivity ratio [16] | EC50 (Vaccinia virus [17]) | EC50 (Vaccinia virus [18]) | bioavailability [19]
1 | Nc1ccn(C[C@@H](CO)OCP(=O)(O)O)c(=O)n1.O.O [CIDOFOVIR] | 35 µM | 0% | > 317 µM | 0% | 0% | Active | 0% | 100% | > 12.2 | 11 days | 0% | 0% | 143% | 0% | > 9.1 | > 10.9 | 26 µM | – | –
2 | Nc1ncnc2c1ncn2C[C@@H](CO)OCP(=O)(O)O | 4 µM | – | > 289 µM | – | – | – | – | – | > 107 | – | – | – | – | – | > 72 | > 44 | 2.7 µM | 6.5 µM | 24%
3 | CCCCCCCCCCCCCCCCOCCCOP(=O)(O)CO[C@H](CO)Cn1ccc(N)nc1=O [BRINCIDOFOVIR] | 0.6 µM | – | 31 µM | – | – | – | – | – | 39 | – | – | – | – | – | 52 | 28 | 0.8 µM | 1.1 µM | –
